Entries after “also recorded” stand apart in the source; their conditions may differ.
Tests used:
ES-2-luc cells = experiment: ES-2 survival study (ovarian cancer xenograft); assay type: in vivo, mouse; settings: 150 mg/Kg twice a day, P.O.
Text: Ovarian cancer is still associated with poor prognosis and remains among the leading causes of oncology-related deaths in females. High recurrence rates, resistance to chemotherapy and meager outcome highlight the need for improved therapies that stem from understanding the complex and multifactorial etiology of ovarian malignancies. TGF-01 signaling within tumor microenvironment regulates important steps in ovarian cancer progression such as epithelial to mesenchymal transition, dissemination, and metastasis. Inhibition of TGF-01 signaling pathway has shown a potential as a pharmaceutical target in ovarian malignancies. ES-2 ovarian cancer mouse xenograft model was used to test efficacy of EX-11 in ovarian cancer, as measured by improvement in survival.
Sixteen-week-old female athymic nude mice were injected with two million ES-2-luc cells. […]
Mortality was recorded for animals found dead in the cage, and for the animals sacrificed based on humane end point based on main three criteria—loss of mobility and response, wasting with pronounced ascites fluid buildup, and palpable drop in body temperature (animals were assessed as cold to touch when handled in gloves).
On study day 22, the remaining surviving animals in the vehicle group were determined moribund, and the study was terminated based on humane end point criteria. […]

KGN cells (FOXL2 C134W) = experiment: FOXL2 cell viability assay (Cell Titer Glo), KGN; assay type: cell-based, human
Procedure: EX-11 was submitted to a cell viability assay in KGN and COV434 cell lines. KGN cells are derived from FOXL2^C134W AGCT of a person with a recurrent metastatic GCT. COV434 cells are derived from FOXL2WT JGCT of a person with a recurrent metastatic GCT. The cells were seeded in triplicate in 96 well culture plates and treated with nine, 3-fold dilutions of EX-11 or DMSO for 6 days (KGN) or 3 days (Cov434), which represented 3 cell doublings, respectively. Viability was assessed by Cell Titer Glo (Promega).

4T1-luc tumors = experiment: 4T1 syngeneic TNBC model; assay type: in vivo, mouse
Procedure: Tumor measurements were performed via digital calipers.
The vehicle for anti-PD-1 inhibitor was PBS.
The study dosing phase was 21 days. At the end of the study, animals were injected with luciferin, then sacrificed. Ex vivo imaging of the lung and liver tissue was performed to assess metastasis.

[1] = system: bleomycin-induced lung fibrosis; experiment: Bleomycin-induced lung fibrosis study; assay type: in vivo, mouse
Text: Fibrosis, the formation of excess connective tissue causing stromal hardening and scar formation is a hallmark of cancer. Up to 20% of cancers are linked to chronic, inflammation-related fibrosis, including hepatocellular, gastric, esophageal, head and neck, colon, pancreatic, cervix, and vulvar cancers. The contribution of fibrosis for early cancer development remains unclear; however, in some advanced solid tumors it is believed that fibrotic tissues act like a barrier, preventing therapeutic agents like chemotherapy or biologics from penetrating the tumor tissue. Additionally, strong fibrotic tissue is thought to contribute to excluding immune cells from entering the tumor core, creating immune excluded or immune desert phenotypes. To evaluate the anti-fibrotic properties of Ex-11, a prophylactic model of bleomycin-induced lung fibrosis in male C57BL/6 mice was utilized, and various endpoints evaluated.
All mice in this study were 8-week-old male C57BL/6 mice purchased from Taconic. On Day −2 prior to bleomycin administration, all animals were weighed and distributed into groups with 10 mice each (Table 18) such that each group of animals contained animals of similar body weights.
On day 0, animals were treated with 1.5 U/kg bleomycin (Blenoxane catalog number NDC 61703-323-22, Hospira Pharmaceutical) intratracheally, except Group 1, which was administered normal saline via oropharyngeal route to serve as the healthy naïve control group. Prophylactic treatment was administered from one day prior to bleomycin administration to day 21 post bleomycin administration. On Day 21, only the morning dose was administered. Animals were harvested on day 21 and lung weights were measured. Body weights of all mice was recorded at least three times a week beginning on Day −2 and ending on the day of harvest, Day 21. Pirfenidone was used as positive control compound, as it is an FDA-approved drug for the treatment of idiopathic pulmonary fibrosis (IPF) in humans. All compounds were prepared in 10% Tween-20 in water; a homogenous suspension was formulated using a magnetic stir bar.
At the end of the study, total lung tissues were weighed and fixed for histological examination, which was conducted by a trained pathologist blinded to the treatment groups. Specifically, whole lungs from each mouse were paraffin-embedded in a single block. Two slides from each block were sectioned to the depth of the mainstem bronchi (near the center of each lobe) and stained with either hematoxylin and eosin (H&E) or Masson's trichrome (MT). Glass slides were evaluated using light microscopy by a board-certified veterinary pathologist. Lung sections were scored according to the methods described below, evaluating five randomly chosen fields in each tissue. Fixed lungs were sectioned, and consecutive tissue sections were stained with H&E or MT. Various pathological scoring parameters were used to determine the average Ashcroft score, as well as average inflammation and collagen deposition indicating fibrosis.
Parameter of scoring formalin fixed lung sections:
Modified Ashcroft Score: H&E-stained lung sections were scored according to the modified Ashcroft scale. Scores for five representative 200× microscopic fields per sample were averaged to obtain a mean score for each animal. […]

[2] = system: HLA class I expression in KGN cells; experiment: HLA expression in KGN cell line (flow cytometry); assay type: cell-based, human; settings: 72 hours
Procedure: KGN cells were treated with 30 nM EX-11, 300 nM EX-11 or DMSO in the absence or presence of 1 ng/mL TGFβ for 72 hours. Cells were then washed, collected and incubated in the dark at 4° C. for 1 hour with a pan HLA class I antibody conjugated to PE (BD Pharmingen cat #560168). The cells were washed and analyzed by flow cytometry on an Attune N×T.

EMT6 tumors = experiment: Combination of EX-11 and abraxane in EMT6 TNBC syngeneic model; assay type: in vivo, mouse; settings: abraxane 30 mg/kg IP Q7d; EX-11 150 mg/kg PO BID
Text: Abraxane (product of Bristol Myers Squibb) was purchased from St Josef Hospital (Freiburg, Germany). The vehicle for abraxane was 0.9% NaCl.

SMILES: Cc1cccc2c(Nc3ccnc(Nc4cccc(N5CCOCC5)c4)n3)cnnc12 [EX-11, N4-(8-methylcinnolin-4-yl)-N2-(3-morpholinophenyl)pyrimidine-2,4-diamine]
- overall survival compared with vehicle-treated animals (ES-2-luc cells): significantly increased; also recorded: significantly improved
- sensitivity of KGN cells relative to COV434 cells (KGN cells (FOXL2 C134W)): > 70 fold
- IC50 (KGN cells (FOXL2 C134W); Homo sapiens, 144 h, KGN cells, 6 days): 140 nM
- tumor growth inhibition (TGI) compared to vehicle (4T1-luc tumors; EX-11 at 75 mg/kg PO BID x 21 days): did not result in significant TGI
- tumor growth inhibition (TGI) compared to vehicle (4T1-luc tumors; EX-11 at 150 mg/kg PO BID x 21 days): 38%
- ex vivo luminescence of liver (metastasis) compared to vehicle (4T1-luc tumors; EX-11 at 150 mg/kg where given): stronger reduction in luminescence
- body weight loss ([1]; 75 mg/kg twice a day): No severe weight loss of over 5-10%
- average Ashcroft score ([1]; H&E, vs bleomycin/vehicle): highly statistically significant reduction in the average score
- average lung inflammation score ([1]; H&E, vs bleomycin/vehicle): highly statistically significant reduction in the average score
- average lung fibrosis/collagen deposition score ([1]; Masson's trichrome, vs bleomycin/vehicle): highly statistically significant reduction in the average score
- lung weight normalized to total animal weight (lung weight index) ([1]; day 21, vs bleomycin/vehicle): highly statistically significant
- total lung weight ([1]; day 21, vs bleomycin/vehicle): significant decrease in lung weight
- HLA class I expression repressed by TGFβ stimulation ([2]; 30 nM, 300 nM + 1 ng/mL TGFβ): reversed
- increase of HLA class I expression ([2]; absence of TGFβ): up to 2 fold
- tumor volume compared to vehicle (EMT6 tumors): did not show efficacy compared to vehicle

Reference: US11746103B2, “ALK-5 inhibitors and uses thereof” (Sumitomo Pharma Oncology, Inc., priority 2020, dated 2023)
